Measurements reported in US20240300980A1, “HETEROCYCLIC COMPOUNDS AS KRAS INHIBITOR, AND PREPARATION THEREFOR AND USE THEREOF IN TREATMENT” (SHANGHAI KECHOW PHARMA, INC., priority 2021, published 2024).

tested on: AGS cells (KRAS^G12D); test: Detection of cell proliferation in vitro by MTT/MTS method (cell activity experiment); type: cell-based; conditions: AGS cells; MTT/MTS; 3 days of drug treatment; read-out: AGS IC50
Outline: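 KRAS G12D AGS cells seeded at 1000 per well, compound added 24 h later, 0.5% final DMSO. Viability read after 3 days of treatment by MTT (solubilised in DMSO) or MTS, 4 h, absorbance 490 nm. IC50 from dose–response curves versus DMSO control.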

`Oc1cc(-c2ccc3c(N4C[C@H]5CC[C@@H](C4)[C@@H]5F)nc(OC[C@@]45CCCN4C[C@H](F)C5)nc3c2F)c2c(F)c(F)ccc2c1` [Example 126, 5,6-difluoro-4-(8-fluoro-4-((1R,5S,8R)-8-fluoro-3-azabicyclo [3.2.1]octan-3-yl)-2-(((2R,7aS)-2-fluorotetrahydro-1H-pyrrolizin-7a(5H)-yl)methoxy)quinazolin-7-yl)naphthalen-2-ol] and `C#Cc1c(F)ccc2cc(O)cc(-c3ccc4c(N5C[C@H]6CC[C@@H](C5)[C@@H]6F)nc(OC[C@@]56CCCN5C[C@H](F)C6)nc4c3F)c12` [Example 123, 5-ethynyl-6-fluoro-4-(8-fluoro-4-((1R,5S, 8R)-8-fluoro-3-azabicyclo[3.2.1]octan-3-yl)-2-(((2R,7aS)-2-fluorotetrahydro-1H-pyrrolizin-7a(5H)-yl)methoxy)quinazolin-7-yl)naphthalen-2-ol] cannot be ordered by IC50: > 2500 nM for the first, > 2500 nM for the second.

same assay, conditions: Homo sapiens, AGS, 72 h, AGS cells; MTT/MTS; 3 days of drug treatment; read-out: AGS IC50

Compared with `Oc1cc(-c2ccc3c(N4C[C@H]5CC[C@@H](C4)S5)nc(OC[C@@]45CCCN4C[C@H](F)C5)nc3c2F)c2c(F)cccc2c1` [Example 167, 4-(4-((1R,5S)-8-thia-3-azabicyclo[3.2.1]octan-3-yl)-8-fluoro-2-(((2R,7aS)-2-fluorotetrahydro-1H-pyrrolizin-7a(5H)-yl)methoxy)quinazolin-7-yl)-5-fluoronaphthalen-2-ol], `[O-][S+]1C2CCC1CN(c1nc(OC[C@@]34CCCN3C[C@H](F)C4)nc3c(F)c(-c4cc(O)cc5ccc(F)c(F)c45)ccc13)C2` (stereo partly drawn) [Example 165, (1R,5S,8R)-3-(7-(7,8-difluoro-3-hydroxynaphthalen-1-yl)-8-fluoro-2-(((2R,7aS)-2-fluorotetrahydro-1H-pyrrolizin-7a(5H)-yl)methoxy)quinazolin-4-yl)-8-thia-3-azabicyclo[3.2.1]octane 8-oxide] is higher in IC50: 310 nM for the first, > 2500 nM for the second. The first is the more potent here.

First: CN1CCCc2cc(O)cc(-c3ncc4c(N5C[C@H]6CC[C@@H](C5)N6)nc(OC[C@@]56CCCN5C[C@H](F)C6)nc4c3F)c21 [Example 359, 8-(4-((1R,5S)-3,8-diazabicyclo[3.2.1]octan-3-yl)-8-fluoro-2-(((2R,7aS)-2-fluorotetrahydro-1H-pyrrolizin-7a(5H)-yl)methoxy)pyrido[4,3-d]pyrimidin-7-yl)-1-methyl-1,2,3,4-tetrahydroquinolin-6-ol]
Second: CC[C@H]1CCc2cc(O)cc(-c3ncc4c(N5CC6CCC(C5)N6)nc(OC[C@@]56CCCN5C[C@H](F)C6)nc4c3F)c21 (single isomer, unassigned) [Example 222, (S)-7-(4-((1R,5S)-3,8-diazabicyclo[3.2.1]octan-3-yl)-8-fluoro-2-(((2R,7aS)-2-fluorotetrahydro-1H-pyrrolizin-7a(5H)-yl)methoxy)pyrido[4,3-d]pyrimidin-7-yl)-1-ethyl-2,3-dihydro-1H-inden-5-ol or (R)-7-(4-((1R,5S)-3,8-diazabicyclo[3.2.1]octan-3-yl)-8-fluoro-2-(((2R,7aS)-2-fluorotetrahydro-1H-pyrrolizin-7a(5H)-yl)methoxy)pyrido[4,3-d]pyrimidin-7-yl)-1-ethyl-2,3-dihydro-1H-inden-5-ol]
The IC50 of the first is 14-fold higher: 35 nM for the first, 2.5 nM for the second.

Compared with `C#Cc1c(F)ccc2cc(O)cc(-c3ncc4c(N5C[C@H]6CC[C@@H](C5)N6)nc(OC[C@@]56CCCN5C[C@H](F)C6)nc4c3OC3CC3)c12` [Example 334, 4-(4-((1R,5S)-3,8-diazabicyclo[3.2.1]octan-3-yl)-8-cyclopropoxy-2-(((2R,7aS)-2-fluorotetrahydro-1H-pyrrolizin-7a(5H)-yl)methoxy)pyrido[4,3-d]pyrimidin-7-yl)-5-ethynyl-6-fluoronaphthalen-2-ol], `Oc1cc(-c2c(Cl)cc3c(N4C[C@H]5CC[C@@H](C4)N5)nc(OC[C@@]45CCCN4C[C@H](F)C5)nc3c2OC2CC2)c2ccccc2c1` [Example 329, 4-(4-((1R,5S)-3,8-diazabicyclo[3.2.1]octan-3-yl)-6-chloro-8-cyclopropoxy-2-(((2R,7aS)-2-fluorotetrahydro-1H-pyrrolizin-7a(5H)-yl)methoxy)quinazolin-7-yl)naphthalen-2-ol] is 2.1-fold higher in IC50: 125 nM for the first, 260 nM for the second. The first is the more potent here.

Going from `CCC1c2c(C3=C(F)c4nc(OC[C@@]56CCCN5C[C@H](F)C6)nc(N5C[C@H]6CC[C@@H](C5)N6)c4C4=NCCN43)cc(O)cc2C2CC21` (stereo partly drawn) [Example 409, 5-(10-((1R,5S)-3,8-diazabicyclo[3.2.1]octan-3-yl)-6-fluoro-8-(((2R,7aS)-2-fluorotetrahydro-1H-pyrrolizin-7a(5H)-yl)methoxy)-2,3-dihydroimidazo[1′,2′:1,2]pyrido[4,3-d]pyrimidin-5-yl)-6-ethyl-1,1a,6,6a-tetrahydrocyclopropa[a]inden-3-ol] to `CCC1CCc2cc(O)cc(-c3c4c(c5c(N6C[C@H]7CC[C@@H](C6)N7)nc(OC[C@@]67CCCN6C[C@H](F)C7)nc5c3F)OCO4)c21` (stereo partly drawn) [Example 394, 7-(9-((1R,5S)-3,8-diazabicyclo[3.2.1]octan-3-yl)-5-fluoro-7-(((2R,7aS)-2-fluorotetrahydro-1H-pyrrolizin-7a(5H)-yl)methoxy)-[1,3]dioxolo[4,5-f]quinazolin-4-yl)-1-ethyl-2,3-dihydro-1H-inden-5-ol], the IC50 rises from 45 nM to 75 nM (1.7-fold). The first is the more potent here.

Going from `CCc1c(F)ccc2cc(O)cc(-c3ccc4c(N5C[C@H]6CC[C@@H](C5)N6)c(C#N)c(OC[C@@]56CCCN5C[C@H](F)C6)nc4c3)c12` [Example 172, 4-((1R,5S)-3,8-diazabicyclo[3.2.1]octan-3-yl)-7-(8-ethyl-7-fluoro-3-hydroxynaphthalen-1-yl)-2-(((2R,7aS)-2-fluorotetrahydro-1H-pyrrolizin-7a(5H)-yl)methoxy)quinoline-3-carbonitrile] to `CCc1c(F)ccc2cc(O)cc(-c3ccc4c(N5C[C@H]6CC[C@@H](C5)N6)nc(OC[C@@]56CCCN5C[C@H](F)C6)nc4c3F)c12` [Example 92, 4-(4-((1R,5S)-3,8-diazabicyclo[3.2.1]octan-3-yl)-8-fluoro-2-(((2R,7aS)-2-fluorotetrahydro-1H-pyrrolizin-7a(5H)-yl)methoxy)quinazolin-7-yl)-5-ethyl-6-fluoronaphthalen-2-ol], the IC50 falls from 1230 nM to 2.7 nM (460-fold).

Going from `Cc1cc(N)nc(-c2ncc3c(N4C[C@H]5CC[C@@H](C4)N5)nc(OCC4(CN5CCCC5)CC4)nc3c2F)c1C(F)(F)F` [Example 8, 6-(4-((1R,5S)-3,8-diazabicyclo[3.2.1]octan-3-yl)-8-fluoro-2-((1-(pyrrolidin-1-ylmethyl)cyclopropyl)methoxy)pyrido[4,3-d]pyrimidin-7-yl)-4-methyl-5-(trifluoromethyl) pyridin-2-amine] to `CCc1c(F)ccc2cc(O)cc(-c3ncc4c(N5C[C@H]6CC[C@@H](C5)N6)nc(OCC5(CN6CCCC6)CC5)nc4c3F)c12` [Example 3, 4-(4-((1R,5S)-3,8-diazabicyclo[3.2.1]octan-3-yl)-8-fluoro-2-((1-(pyrrolidin-1-ylmethyl)cyclopropyl)methoxy)pyrido[4,3-d]pyrimidin-7-yl)-5-ethyl-6-fluoronaphthalen-2-ol], the IC50 falls from > 1000 nM to 4.5 nM. The second is the more potent here.

First: Oc1cc(-c2ncc3c(N4C[C@H]5CC[C@@H](C4)N5)c(C(F)(F)F)c(OC[C@@]45CCCN4C[C@H](F)C5)nc3c2F)c2c(F)c(F)ccc2c1 [Example 198, 4-(4-((1R,5S)-3,8-diazabicyclo[3.2.1]octan-3-yl)-8-fluoro-2-(((2R,7aS)-2-fluorotetrahydro-1H-pyrrolizin-7a(5H)-yl)methoxy)-3-(trifluoromethyl)-1,6-naphthyridin-7-yl)-5,6-difluoronaphthalen-2-ol]
Second: Oc1cc2c(c(-c3ncc4c(N5C[C@H]6CC[C@@H](C5)N6)nc(OC[C@@]56CCCN5C[C@H](F)C6)nc4c3F)c1)C(CC(F)(F)F)CC2 (stereo partly drawn) [Example 257, 7-(4-((1R,5S)-3,8-diazabicyclo[3.2.1]octan-3-yl)-8-fluoro-2-(((2R,7aS)-2-fluorotetrahydro-1H-pyrrolizin-7a(5H)-yl)methoxy)pyrido[4,3-d]pyrimidin-7-yl)-1-(2,2,2-trifluoroethyl)-2,3-dihydro-1H-inden-5-ol]
The IC50 of the first is higher: > 2500 nM for the first, 1850 nM for the second.

First: C#Cc1c(F)ccc2cc(O)cc(-c3ccc4c(N5C[C@H]6CC[C@@H](C5)N6)nc(OC[C@]56CCCN5[C@@H](COC(=O)N(C)C)CC6)nc4n3)c12 [Example 145, ((3R,7aR)-7a-(((4-((1R, 5S)-3,8-diazabicyclo [3.2.1]octan-3-yl)-7-(8-ethynyl-7-fluoro-3-hydroxynaphthalen-1-yl)pyrido[2,3-d]pyrimidin-2-yl)oxy)methyl)hexahydro-1H-pyrrolizin-3-yl)methyl dimethylcarbamate]
Second: C#Cc1c(F)ccc2cc(O)cc(N3CCc4c(nc(OC[C@]56CCCN5[C@@H](COC(=O)N(C)C)CC6)nc4N4C[C@H]5CC[C@@H](C4)N5)C3)c12 [Example 209, ((3R,7aR)-7a-(((4-((1R,5S)-3,8-diazabicyclo[3.2.1]octan-3-yl)-7-(8-ethynyl-7-fluoro-3-hydroxynaphthalen-1-yl)-5,6,7,8-tetrahydropyrido[3,4-d]pyrimidin-2-yl)oxy)methyl)hexahydro-1H-pyrrolizin-3-yl)methyl dimethylcarbamate]
The IC50 of the first is higher: > 2500 nM for the first, 35 nM for the second. The second is the more potent here.

Compared with `CCC1COc2cc(O)cc(-c3ncc4c(N5C[C@H]6CC[C@@H](C5)N6)nc(OC[C@@]56CCCN5C[C@H](F)C6)nc4c3F)c21` (stereo partly drawn) [Example 243, 4-(4-((1R,5S)-3,8-diazabicyclo[3.2.1]octan-3-yl)-8-fluoro-2-(((2R,7aS)-2-fluorotetrahydro-1H-pyrrolizin-7a(5H)-yl)methoxy)pyrido[4,3-d]pyrimidin-7-yl)-3-ethyl-2,3-dihydrobenzofuran-6-ol], `C#Cc1c(F)ccc2cc(O)cc(-c3ccc4c(N5CCC(C#N)CC5)nc(OC[C@@]56CCCN5C[C@H](F)C6)nc4c3F)c12` [Example 133, 1-(7-(8-ethynyl-7-fluoro-3-hydroxynaphthalen-1-yl)-8-fluoro-2-(((2R, 7aS)-2-fluorotetrahydro-1H-pyrrolizin-7a(5H)-yl)methoxy)quinazolin-4-yl)piperidine-4-carbonitrile] is higher in IC50: 18 nM for the first, > 2500 nM for the second.
